Source: publication PMC4038613, “A New Class of Multimerization Selective Inhibitors of HIV-1 Integrase” (PLoS Pathogens, 2014)
Where two headings read alike, the source gives them in different places.

Assays:
IN-LEDGF/p75 = IN-LEDGF/p75 (Human immunodeficiency virus type 1 group M subtype B, UniProt P12497); assay: HTRF-based IN-LEDGF/p75 binding assay; design: species or system HIV-1
Description: HTRF-based IN multimerization and IN-LEDGF/p75 binding assays were carried out as described previously [33].

HIV-1NL4-3 = assay: microbe, parasite or virus in culture; type: cell-based
in vitro = type: cell-based
Description: The cytotoxcity assays were performed as described previously. The fitted dose-response curves were generated to calculate EC50 or CC50 using Origin software (OriginLab, Inc.).

HIV-1MJ4 = assay: Antiviral assay against HIV-1 clade C (pMJ4); type: cell-based; conditions: Human immunodeficiency virus 1, IN residue Ala125, read-out: IC50 for inhibition of HIV-1MJ4 replication
HIV-1 [1] = assay: Antiviral assay, late stage (inhibitor added to producer cells); type: cell-based; conditions: Human immunodeficiency virus 1, virions prepared in presence of inhibitor, untreated target cells; called IC50
Description: Results represent mean ± SD from three independent experiments.
For late stage experiments, the progeny virions were prepared in the presence of the indicated concentrations of the test inhibitor or diluent control (DMSO) and were then used to infect untreated target cells.

HIV-1 [2] = assay: Antiviral assay, early stage (inhibitor added to target cells); type: cell-based; conditions: called IC50
[3] = tested on: VSV-G pseudotyped HIV-1-Luc in PSIP1 KO HEK293T cells; assay: microbe, parasite or virus in culture; type: cell-based; conditions: for EC50: Human immunodeficiency virus 1, HEK-293T
HIV-1 virions = type: cell-based; conditions: virions produced in presence of 1 µM KF116
HIV-1 capsid (p24) = assay: Sucrose density gradient fractionation of detergent-lysed virions; type: cell-based; conditions: 1 µM KF116, fractions 18–20
Description: Cell-free virions were harvested, detergent-lysed, and separated on 30–70% linear sucrose density gradients. Twenty-one 0.5 ml fractions were collected from the top of the gradient and subjected to SDS-PAGE and immunoblotted with HIV-1 Gag antisera to monitor the distribution of HIV-1 capsid. […] (D) Quantitation of HIV-1 capsid (p24) signal intensity from (B) as measured by ImageJ software. Graph represents the relative distribution of HIV-1 capsid (p24) in each of the sucrose density gradient fractions.
Sucrose density gradient fractionation was carried out as described previously [74] with some modifications. Briefly, HIV-1 virions were produced in the presence of the inhibitor or diluent control (DMSO) and cell-free virions were concentrated over a 25% sucrose cushion by ultra-centrifugation at 28,000 rpm for 2 h at 4°C in SW41 rotor (Beckman). Pelleted virions were resuspended in 300 µl STE buffer (10 mM Tris pH 7.5, 100 mM NaCl, 1 mM EDTA), lysed with 0.5% Triton X100 for 2 minutes at room temperature. Lysed virions were loaded on 30–70% linear sucrose density gradients in STE buffer, and ultra-centrifuged at 28,500 rpm for 16 h at 4°C in SW41 rotor (Beckman). Twenty-one 0.5-ml fractions were collected from the top of the gradient and subjected to SDS-PAGE and immunoblotted with HIV-1 Gag antisera to monitor the distribution of HIV-1 capsid.

IN = molecular target: T1, IN (Human immunodeficiency virus type 1 group M subtype B, UniProt P12497); assay: DLS assay of recombinant IN multimerization; type: biochemical, HIV-1
T1 construct: DLS analysis of KF116-induced multimerization of recombinant IN
Description: (§1) (A) DLS analysis of KF116-induced multimerization of recombinant IN. […] The indicated volumes of cross-linked reaction products were resolved by SDS-PAGE and immunoblotted with HIV-1 IN antibody. The bands corresponding to IN “monomer”, “dimer”, and “higher order oligomers” are indicated.
DLS signals were recorded at room temperature using a Malvern Nano series zetasizer instrument.

HIV-1 expression = type: cell-based; conditions: for inhibition of HIV-1 expression: target cells
[4] = tested on: VSV-G pseudotyped HIV-1-Luc; type: cell-based
A128T IN HIV-1NL4-3 = assay: A128T HIV-1 infectivity in TZM-bl cells; type: cell-based; conditions: particles produced in presence of inhibitor
[5] = tested on: initiation of reverse transcription; assay: tRNALys3 primer extension assay; type: biochemical, HIV-1; conditions: virions produced with 1 µM KF116
virion-associated RT = assay: Virion-associated Reverse Transcriptase (RT) assay; type: biochemical, HIV-1; conditions: virions produced with 1 µM KF116
Description: Virions generated in the presence of inhibitor or diluent control (DMSO) was concentrated over 25% sucrose cushion. The virion-associated RT activity assay was performed as described previously, [81] with minor changes. Briefly, equivalent amounts of concentrated virions (based on HIV-1 p24 ELISA) were incubated with RT buffer, containing 50 mM Tris (pH 7.8), 75 mM KCL, 5 mM MgCl2, 2 mM DTT, 0.05% Nonidet P-40 (v/v), 5 µg/ml Poly r(A). Poly d(T)12–18, and 10 µCi of α-^32P dTTP, in 35 µl final volume. The reactions were incubated at room temperature for 3 h. Duplicate 10 µl of the final reactions were blotted onto a 96-well DEAE Filtermat paper (Wallac-Perkin Elmer), dried, washed and processed as described previously.
The initiation of reverse transcription from total viral RNA was measured using an in vitro HIV-1 reverse transcription reaction, which extends tRNA^Lys3 primer on viral RNA template by +6-nt. The final reaction products were resolved by PAGE and detected by phosphorimager analysis. (Upper panel) A representative image of the 6-nt extension products is shown. (Lower panel) The bar graph represents quantification of bands from the upper panel using ImageJ software. The signal intensity obtained for the non-treated (DMSO) sample was set to 100%. […] Equivalent amounts of concentrated virions, based on HIV-1 p24 ELISA, were analyzed for virion-associated RT activity. […]

[6] = tested on: HIV-1 virions in HEK293T cells; assay: Viral entry assay; type: cell-based; conditions: virions produced with 1 µM KF116
IN in HIV-1 virions = IN in HIV-1 virions (Human immunodeficiency virus type 1 group M subtype B, UniProt P12497); assay: Virion-associated IN cross-linking assay (BS3); type: cell-based; conditions: virions from cells treated with 1 µM KF116
Description: as §1
The IN cross-linking assay was performed as described previously. Briefly, concentrated virions equivalent to 50 ng of HIV-1 p24 were cross-linked with 50 µM bis(sulfosuccinimidyl)suberate (BS^3) cross-linking reagent (Thermo Scientific). Subsequent cross-linked reaction products were quenched and resolved by SDS-PAGE (4–12%, Invitrogen) and immunoblotted.

HIV-1 IN [7] = molecular target: T2, HIV-1 IN (Human immunodeficiency virus type 1 group M subtype B, UniProt P12497); conditions: IC50 for inhibiting IN-LEDGF/p75 binding divided by EC50 for aberrant IN multimerization; fold
Description: (§2) HTRF-based IN multimerization and IN-LEDGF/p75 binding assays were carried out as described previously [33]. The HTRF signal was recorded using a Perkin Elmer Multimode EnSpire plate reader.

HIV-1 IN [8] = molecular target: T2, HIV-1 IN; assay: biochemical
Description: as §2

Cc1nc(-c2nc3ccc(Cl)cc3[nH]2)c(C)c(-c2ccccc2)c1C(OC(C)(C)C)C(=O)O (centres unmarked) [KF116]
IC50 (IN-LEDGF/p75): 5030 ± 360 nM | IC50 (HIV-1NL4-3; Human immunodeficiency virus 1, read-out: Antiviral activity (IC50), HIV-1NL4-3, full replication cycle): ~24 nM | EC50 (HIV-1NL4-3; Human immunodeficiency virus 1, read-out: EC50, Full Replication Cycle, KF116 added to both producer and target cells, mean ± SD, three experiments): 24 nM | CC50 (in vitro): > 100000 nM | IC50 (HIV-1MJ4): 127 ± 10 nM | EC50 (HIV-1 [1]): ~30 nM | EC50 (HIV-1 [2]; Human immunodeficiency virus 1, read-out: EC50, Early Stage, target cells, inhibitor added to target cells, untreated virions): 50900 ± 4300 nM | EC50 (HIV-1 [2]; read-out: EC50, Early Stage, target cells, inhibitor added to target cells, untreated virions): ~50000 nM | effect of complete loss of LEDGF/p75 protein in virus-producer cells on IC50 values [3]: did not alter | EC50 ([3]; read-out: EC50, KO producer cells): ~75 nM | EC50 ([3]; read-out: EC50, KO target cells): ~1400 nM | eccentric cores among mature virions (HIV-1 virions): ~95% | reduction of HIV-1 capsid (p24) in higher density fractions (HIV-1 capsid (p24)): > 95% | DLS particle size diameter, 30 min (IN; 1 µM KF116, 200 nM IN): 1106 nm | DLS particle size diameter, 120 min (IN; 1 µM KF116, 200 nM IN): 1281 nm | DLS particle size diameter, immediately upon addition (2 minutes) (IN; 1 µM KF116, 200 nM IN): 142 nm | DLS signal of inhibitor alone (self-aggregation in aqueous solution) (IN; only KF116, no IN): no signal was recorded | inhibition of HIV-1 expression (HIV-1 expression; 5 µM): did not significantly inhibit HIV-1 expression | inhibition of HIV-1 expression (HIV-1 expression; 10 µM): did not significantly inhibit HIV-1 expression | reduction in target cell HIV-1 expression (HIV-1 expression; virus-producer cells treated with 0.1 µM): ~77% | effect on replication intermediates in target cells of virions produced in presence of inhibitor [4]: sharply reduced levels of early and late RT products | effect on replication intermediates when inhibitor added to target cells [4]: had no effects on reverse transcription, integration, levels of 2-LTRs, or viral expression | A128T IN HIV-1NL4-3 replication in infected cells (A128T IN HIV-1NL4-3): effectively impaired | effect on annealing of tRNALys3 primer to viral RNA template (primer extension) [5]: did not significantly affect | effect on virion-associated RT activities (virion-associated RT): no effects | effect on viral entry (incoming genomic RNA in target cells) [6]: does not significantly compromise viral entry | IN multimerization in virions after BS3 cross-linking (IN in HIV-1 virions): levels of IN dimers increased and new slower migrating bands were observed | Selectivity ratio, IC50 IN-LEDGF/EC50 aberrant IN multimerization (HIV-1 IN [7]): 58.5 | EC50 (HIV-1 IN [8]): 86 ± 6 nM
